Test results published in US20050277107A1, “Systems and methods for cell preservation” (priority 2002, published 2005).

Key:
[1] = system: human fibroblast cells (HFF1 cells); assay: Cell viability after vacuum desiccation and rehydration on cell adhesion surfaces; assay type: cell-based; settings: dried on standard tissue culture surfaces to about 20% moisture, post-rehydration on coated surface (Tissue Dried)
Experimental: In this set of experiments, human fibroblast cells (HFF1 cells) were desiccated under vacuum at room temperature on various surfaces, and in some cases, in the presence of 0.2 M extracellular trehalose. The fibroblasts were dried to about 20% moisture content. The fibroblasts were then recovered by rehydrating them, placing them into culture, and assessing their viability about 24 hours later, using techniques similar to those described in Example 1.

[2] = system: NIH 3T3 murine fibroblasts; assay: Post-rehydration plasma membrane integrity (SYTO 13/ethidium bromide dual fluorescent assay) of dried cells; assay type: cell-based; settings: for moisture content above which membrane integrity remained relatively stable: hypertonic (528 mOsm/kg) 0.2 M trehalose
Experimental: (§1) NIH 3T3 murine fibroblasts were cultured in Dulbecco's Modified Eagle's medium (DMEM) supplemented with 10% v/v bovine calf serum and 1% v/v penicillin-streptomycin at 37° C. with 10% CO2 in air. At 70% confluence, the cells were trypsinized and resuspended in culture medium. 20 microliter droplets of cells were plated onto sterile 12 mm circular glass cover slips and cultured for 30 min at 37° C. to allow for loose attachment of the fibroblasts to the cover slip. In some cases, poly-L-lysine-coated cover slips were used for attaching the cells to the cover slips. The cover slips were precoated with poly-L-lysine to assure uniform surface characteristics as follows. The cover slips were first prepared by soaking them in aqua regia overnight. The next day, the cover slips were rinsed in 50 mM NaHCO3, then in de-ionized H2O. The cover slips were then baked for at least 3 h at 150° C. The cover slips were removed from the oven and floated in a 1 mg/ml solution of poly-L-lysine for 5 min on each side, then rinsed in de-ionized H2O and air-dried.
(§2) Trehalose was inserted into the fibroblasts as follows. The fibroblasts were washed with 30 microliters of a HEPES-buffered saline solution supplemented with EDTA, followed by three washes with 30 microliters of RPMI-1640. The cells were then porated by exposure to an RPMI-1640 solution containing 25 micrograms/ml of a pore-forming protein, H5 alpha-hemolysin, for 10 min. Intracellular trehalose was inserted into the porated cells by exposure to either a hypertonic (RPMI-1640+0.2 M trehalose; 528 mOsm/kg) or an isotonic (RPMI-1640 diluted in H2O+0.2 M trehalose; 310 mOsm/kg) trehalose solution for 45 min. The pores created by H5 alpha-hemolysin in the fibroblasts were closed by adding 25 micromolar ZnSO4 to the solution. The fibroblasts were then washed in an (H5-free) hypertonic or an isotonic trehalose solution. The osmolality of the solution was measured using a freezing-point depression osmometer. All experimental manipulations were performed at room temperature, unless otherwise indicated.
Techniques used in these experiments for drying cells included evaporative drying (using natural convection) or forced laminar convective flow. The natural convection protocol is generally as follows. The approximate pre-desiccation dimensions of the 20 microliter droplet of media containing the fibroblasts on the glass cover slip was 6 mm diameter×1 mm height. The cover slips were placed in airtight acrylic boxes containing CaSO4/CoCl2 desiccant. The cover slips were stored there for different lengths of time, typically ranging from a few hours to several weeks. […] The moisture content of each droplet was determined gravimetrically from the difference in the droplet weight before and after drying, and was expressed as a percentage of anhydrous dry weight. Anhydrous dry weights were determined by baking a representative droplet overnight at 110° C. and measuring the droplet weights. […] The cells within the droplet were then cultured overnight (˜18 h) and assessed for viability.
The integrity of the plasma membrane of the cells after rehydration was determined using a dual fluorescent assay as follows. […] The cells were imaged on a fluorescent microscope and analyzed. The membrane integrity (MI) for the cells was calculated as the percentage of SYTO® 13-positive cells in the sample. […]

[3] = system: NIH 3T3 murine fibroblasts; assay: Post-rehydration cell growth (percentage of viable cells versus undried controls after overnight culture); assay type: cell-based
Experimental: as §1
as §2, with “All experimental manipulations were performed at room temperature, unless otherwise indicated.” left out
Techniques used in these experiments for drying cells included evaporative drying (using natural convection) or forced laminar convective flow. […] The moisture content of each droplet was determined gravimetrically from the difference in the droplet weight before and after drying, and was expressed as a percentage of anhydrous dry weight. Anhydrous dry weights were determined by baking a representative droplet overnight at 110° C. and measuring the droplet weights. […] The cells within the droplet were then cultured overnight (˜18 h) and assessed for viability.
Following overnight culture, the percentage of viable cells in droplets that were dried and then recovered, compared to undried controls, was used as a measure of cell growth. Viable fibroblasts could be readily identified through their flattening, migratory, and mitotic behavior. […]

3T3 fibroblasts = assay: Long-term stability of membrane integrity during dried storage (exponential decay curve fit); assay type: cell-based, murine; settings: 0.4 M intracellular trehalose
Experimental: The integrity of the plasma membrane of the cells after rehydration was determined using a dual fluorescent assay as follows. SYTO® 13 (Molecular Probes, Inc. Eugene, Oreg.), a permeant live cell nucleic acid dye (25 micromolar), and ethidium bromide (EB; 25 micromolar) were used to differentially stain the cells. The cells were imaged on a fluorescent microscope and analyzed. The membrane integrity (MI) for the cells was calculated as the percentage of SYTO® 13-positive cells in the sample.
The membrane integrity of 3T3 fibroblasts loaded with 0.4 M trehalose intracellularly was measured for periods of time extending out to several weeks (FIG. 5). The fibroblasts were prepared using methods similar to those described in Example 1. The data in FIG. 5 represents experiments where cells were removed from storage, rehydrated, analyzed, and then discarded. The cells were stored at temperatures of −80° C., −20° C., 4° C., 25° C., and 37° C., over CaSO4 desiccant (about 5% relative humidity). The 0.4 M trehalose condition was chosen in this example since previous experiments had shown that cells containing 0.4 M trehalose had high MI values after overnight storage.
Thus, the rate at which the membrane integrity decays appears to be a function of the storage temperature.

[4] = Glass transition temperature of extracellular trehalose solution (modulated temperature DSC); assay type: physicochemical; settings: after 18 h of dried storage at 4° C.
Experimental: Thus, the extracellular trehalose solution had vitrified by 18 h. After vitrification (glass formation) of the solution containing the cells had occurred, the cells were able to retain their plasma membrane integrities, even after days to weeks in storage at relatively cooler storage temperatures.

fibronectin
cell viability about 24 hours after rehydration [1]: Increases in cell viability

OC[C@H]1O[C@H](O[C@H]2O[C@H](CO)[C@@H](O)[C@H](O)[C@H]2O)[C@H](O)[C@@H](O)[C@@H]1O [trehalose]
moisture content above which membrane integrity remained relatively stable ([2]; extracellular trehalose only): greater than 15%
moisture content above which membrane integrity remained relatively stable ([2]; intracellular and extracellular trehalose): greater than 10%
membrane integrity (MI) after drying, internal plus external trehalose versus no internal trehalose ([2]; hypertonic solution): higher MI values
moisture content below which gross membrane damage was observed ([2]; isotonic (310 mOsm/kg) solutions of 0.2 M trehalose): 5-8%
intact cells (membrane integrity) ([2]; isotonic trehalose solutions, moisture contents as low as 5-8%): about 80%
percentage of cell growth, isotonic intracellular and extracellular trehalose versus isotonic extracellular trehalose only ([3]; dried to about 10% moisture content, p=0.004): significant improvement
cells viable (cell growth) following drying ([3]; hypertonic trehalose solutions, dried to about 10% moisture content): Less than 20%
percentage of cell growth ([3]; isotonic 0.2 M extracellular trehalose only, dried to 10% moisture content): less than 30%
cells capable of growth after recovery and overnight culture ([3]; isotonic 0.2 M intracellular and extracellular trehalose, moisture contents greater than about 10%): Approximately 80%
decay time constant of membrane integrity (3T3 fibroblasts; storage at 4° C. over CaSO4 desiccant): 54 days
decay time constant of membrane integrity (3T3 fibroblasts; storage at 25° C. over CaSO4 desiccant): 7.5 days
decay time constant of membrane integrity (3T3 fibroblasts; storage at 37° C. over CaSO4 desiccant): 2.0 days
decay time constant of membrane integrity (3T3 fibroblasts; storage at -20° C. over CaSO4 desiccant): 138 days
decay time constant of membrane integrity (3T3 fibroblasts; storage at -80° C. over CaSO4 desiccant): 147 days
glass transition temperature of the extracellular trehalose [4]: 5 to 10 °C

collagen
cell viability about 24 hours after rehydration [1]: Increases in cell viability

laminin
cell viability about 24 hours after rehydration [1]: Increases in cell viability
